# How the values were obtained:
# [1] = test system: HEK293 SMAD2p luciferase reporter cells transfected to stably express full length human LRRC15; assay: Cell reporter assay of anti-LRRC15 antibody drug conjugates (SMAD2p luciferase); type: cell-based; conditions: linker-payload conjugated to anti-LRRC15 antibody; human TGFβ1 1.6 ng/ml; absolute EC50
# Text: The linker payloads in Table 8 were covalently attached to an anti-LRRC15 antibody. The LRRC15 antibody is the murine M25 antibody or a humanized variant thereof (see PCT Application Publication No. WO 2017/095805, incorporated herein by reference in its entirety). Conjugation to the linker-payload is via the interchain disulfides. The antibodies have either a wild-type Fc domain or a null Fc domain. The Fcnull mutations for human IgG1 are L234A, L236A, G237A, and K322A and the Fcnull mutations for murine IgG2a are L234A, L236A, G237A, K322A, and P329G; numbering by EU index.
# The resultant antibody drug conjugates were tested via a cell reporter assay. HEK293 SMAD2p luciferase reporter cells transfected to stably express full length human LRRC15 were seeded in 96 well plates at 40,000 cells/well in an assay media of MEM +0.5% FBS, 1% NEAA, 1% NaPyr & 1% Pen/Strep. Conjugates and controls were added to wells in a dose titration ranging from 500 nM to 0.03 nM. After 24 hours of culture at 37° C. in a 5% CO2 environment human TGFβ1 was added (PeproTech Inc.) to a final concentration of 1.6 ng/ml followed by an additional 18 hour of culture. Luciferase Steady Glo reagent (Promega Corporation) was added as recommended by manufacturer. After incubating 10 minutes with shaking, SMAD2p activity was determined by measuring luminescence with an Envision Plate Reader (Perkin-Elmer Inc.) and an absolute EC50 was determined using Prism Software v8.01 (GraphPad Inc.).
# [2] = test system: TGFβ/SMAD Singling Pathway SBE reporter cell line; assay: TGFβ reporter assay (in vitro small molecule screening); type: cell-based; conditions: SBE luciferase reporter cells, TGFβ stimulation, 18 h, luminescence
# Description: TGFβ/SMAD Singling Pathway SBE reporter cell line was obtained from BPS Bioscience. Cells were passed, expanded, and stored in liquid nitrogen as per the supplier's instructions with the exception that growth media is changed to DMEM-C with Geneticin (DMEM supplemented with 10% fetal bovine serum, 1×NEAA, 1 mM Pyruvate, 2 mM glutamine, 50 μg/mL penicillin, 50 U/mL streptomycin and 400 μg/mL of Geneticin). The assay media was MEM supplemented with […] fetal bovine serum, 1×NEAA, 1 mM Pyruvate, 50 μg/mL penicillin and 50 U/mL streptomycin.
# Test samples (at desired concentrations diluted in assay media) were added to a 96-well assay plate, 20 μL per well. Reporter cells were harvested from the tissue culture flasks by incubation in small quantity of PBS at 37° C. for two minutes after the media in the flask is removed and cells rinsed with PBS. Cells were counted and diluted in the assay media at approximately 0.5×10^6 cells/mL and then 80 μL/well of cells were added to the assay plate containing the 20 μL/well of test samples (or media only), and incubated for approximately 5-6 hours at 37° C. in a 5% CO2 humidified incubator. After that time, 15 μL of TGFβ diluted to 12 ng/mL in the assay media was added to the plate. Controls included TGFβ titration (from 50 to 0 ng/mL) without inhibitors, and media only (without cells, inhibitor or TGFβ). Plates were incubated at 37° C. in a 5% CO2 humidified incubator for 18 h. Luciferase substrate solution is subsequently added at 100 μL per well, incubated in the dark at room temperature for 15 min, and luminescence is measured using a luminometer. EC50 values and curve fits were obtained using Prism (GraphPad Software).
# [3] = target: T1, TGFBR2 (Homo sapiens, UniProt P37173); assay: TGFBR2 RBC enzyme assay (Reaction Biology Corp.); type: biochemical
# T1 construct: purchased Reaction Biology Corp
# T1 sequence (P37173 23-567): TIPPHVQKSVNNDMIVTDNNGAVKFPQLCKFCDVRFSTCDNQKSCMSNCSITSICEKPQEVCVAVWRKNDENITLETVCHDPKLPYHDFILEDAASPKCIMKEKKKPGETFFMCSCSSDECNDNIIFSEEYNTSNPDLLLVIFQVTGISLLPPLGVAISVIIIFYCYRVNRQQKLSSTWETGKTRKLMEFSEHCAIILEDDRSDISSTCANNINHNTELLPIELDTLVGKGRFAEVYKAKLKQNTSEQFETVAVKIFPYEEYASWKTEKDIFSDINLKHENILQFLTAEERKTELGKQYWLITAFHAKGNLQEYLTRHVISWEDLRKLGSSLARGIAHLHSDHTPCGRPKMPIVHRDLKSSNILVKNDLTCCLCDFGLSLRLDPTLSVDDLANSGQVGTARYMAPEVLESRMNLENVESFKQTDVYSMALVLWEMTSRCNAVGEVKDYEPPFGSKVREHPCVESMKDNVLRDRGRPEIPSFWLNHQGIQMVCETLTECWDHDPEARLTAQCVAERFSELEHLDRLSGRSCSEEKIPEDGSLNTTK
# Description: Compounds of the disclosure were assayed by Reaction Biology Corp. using the TGFBR2 RBC enzyme assay.
Compound,EC50 [1] [nM],EC50 [2] [nM],EC50 [3] [nM]
"4-((S)-2-((S)-2-(6-(2,5-dioxo-2,5-dihydro-1H-pyrrol-1-yl)hexanamido)-3-methylbutanamido)-5-ureidopentanamido)benzyl (3-((2^5-amino-6-methyl-3-oxo-10-oxa-4,6-diaza-2(2,6)-pyrazina-5(3,4)-pyridina-1(1,3)-benzenacyclodecaphane-15-yl)oxy)propyl)carbamate [Compound B-16]",1 to 1000,–,–
CC(C)[C@H](NC(=O)CCOCCOCCOCCOCCN1C(=O)C=CC1=O)C(=O)N[C@@H](CCCNC(N)=O)C(=O)Nc1ccc(COC(=O)NCCCOc2ccc3c(c2)OCCN(C)c2ccncc2NC(=O)c2nc-3cnc2N)cc1 [Compound B-65],1 to 1000,–,–
CC(C)[C@H](NC(=O)CCOCCOCCOCCOCCN1C(=O)C=CC1=O)C(=O)N[C@@H](CCCNC(N)=O)C(=O)Nc1ccc(COC(=O)NCCCCc2ccc3cc2CCCCN(C)c2ccncc2NC(=O)c2nc-3cnc2N)cc1 [Compound B-62],1 to 1000,–,–
CC(C)[C@H](NC(=O)CCOCCOCCOCCOCCN1C(=O)C=CC1=O)C(=O)N[C@@H](CCCNC(N)=O)C(=O)Nc1ccc(COC(=O)NCCCOc2ccc3cc2CCCCN(C)c2ccncc2NC(=O)c2nc-3cnc2N)cc1 [Compound B-63],1 to 1000,–,–
CC(C)[C@H](NC(=O)CCOCCOCCOCCOCCN1C(=O)C=CC1=O)C(=O)N[C@@H](CCCNC(N)=O)C(=O)Nc1ccc(COC(=O)NCCCOc2ccc3c(c2)-c2cnc(N)c(n2)C(=O)Nc2cnccc2N(C)CCO3)cc1 [Compound B-64],1 to 1000,–,–
"CN1CCCCOc2ccccc2-c2cnc(N)c(n2)C(=O)Nc2cnccc21 [Compound 34, 2^5-amino-6-methyl-11-oxa-4,6-diaza-2(2,6)-pyrazina-5(3,4)-pyridina-1(1,2)-benzenacycloundecaphan-3-one]",–,1000 to 5000,100 to 1000
"CN1CCCOc2cc(ccc2OCCCN)-c2cnc(N)c(n2)C(=O)Nc2cnccc21 [Compound 61, 2^5-amino-1^4-(3-aminopropoxy)-6-methyl-10-oxa-4,6-diaza-2(2,6)-pyrazina-5(3,4)-pyridina-1(1,3)-benzenacyclodecaphan-3-one]",–,1 to 1000,1 to 100
"CN1CCCNC(=O)c2cccc(c2)-c2cnc(N)c(n2)C(=O)Nc2cnccc21 [Compound 31, 2^5-amino-6-methyl-4,6,10-triaza-2(2,6)-pyrazina-5(3,4)-pyridina-1(1,3)-benzenacycloundecaphane-3,11-dione]",–,1000 to 5000,100 to 1000
"Nc1ncc2nc1C(=O)Nc1cnccc1OC[C@@H]1C[C@@H](CN1)Oc1cccc-2c1 (racemic) [Compound 42, (±)-(4^3,4^5-cis)-1^5-amino-3,6-dioxa-8-aza-1(2,6)-pyrazina-7(4,3)-pyridina-4(3,5)-pyrrolidina-2(1,3)-benzenacyclononaphan-9-one]",–,1 to 1000,100 to 1000
"Nc1ncc2nc1C(=O)Nc1cnccc1N1CCC(CC1)Oc1cccc-2c1 [Compound 23, 1^5-amino-3-oxa-6-aza-1(2,6)-pyrazina-5(4,3)-pyridina-4(4,1)-piperidina-2(1,3)-benzenacycloheptaphan-7-one]",–,> 5000,> 1000
"Nc1ncc2nc1C(=O)Nc1cnccc1O[C@@H]1CN[C@H](COc3cccc-2c3)C1 (racemic) [Compound 38, (±)-(5^2,5^4-cis)-1^5-amino-3,6-dioxa-8-aza-1(2,6)-pyrazina-7(4,3)-pyridina-5(2,4)-pyrrolidina-2(1,3)-benzenacyclononaphan-9-one]",–,1 to 1000,1 to 100
"CCCN1CCCOc2cccc(c2)-c2cnc(N)c(n2)C(=O)Nc2cnccc21 [Compound 17, 2^5-amino-6-propyl-10-oxa-4,6-diaza-2(2,6)-pyrazina-5(3,4)-pyridina-1(1,3)-benzenacyclodecaphan-3-one]",–,1 to 1000,1 to 100
"CN1C[C@H](CNCc2ccccc2)Oc2ccccc2-c2cnc(N)c(n2)C(=O)Nc2cnccc21 [Compound 59, (S)-2^5-amino-8-((benzylamino)methyl)-6-methyl-9-oxa-4,6-diaza-2(2,6)-pyrazina-5(3,4)-pyridina-1(1,2)-benzenacyclononaphan-3-one]",–,> 5000,> 1000
CC(C)[C@H](NC(=O)CCOCCOCCOCCOCCN1C(=O)C=CC1=O)C(=O)N[C@@H](CCCNC(N)=O)C(=O)Nc1ccc(COC(=O)NCCCOc2ccc3cc2OCCCN(C)c2ccncc2NC(=O)c2nc-3cnc2N)cc1 [Compound B-61],1 to 1000,–,–
"CN1CCC(=O)Nc2cccc(c2)-c2cnc(N)c(n2)C(=O)Nc2cnccc21 [Compound 26, 2^5-amino-6-methyl-4,6,10-triaza-2(2,6)-pyrazina-5(3,4)-pyridina-1(1,3)-benzenacyclodecaphene-3,9-dione]",–,1 to 1000,1 to 100
"CN1CCCCOc2cccc(c2)-c2cnc(N)c(n2)C(=O)Nc2cnccc21 [Compound 5, 2^5-amino-6-methyl-11-oxa-4,6-diaza-2(2,6)-pyrazina-5(3,4)-pyridina-1(1,3)-benzenacycloundecaphan-3-one]",–,1 to 1000,1 to 100
"Cc1cc2cc(c1)-c1cnc(N)c(n1)C(=O)Nc1cnccc1N(C)CCCO2 [Compound 10, 2^5-amino-1^5,6-dimethyl-10-oxa-4,6-diaza-2(2,6)-pyrazina-5(3,4)-pyridina-1(1,3)-benzenacyclodecaphan-3-one]",–,1 to 1000,1 to 100
"Nc1ncc2nc1C(=O)Nc1cnccc1OCCOc1ccc(Br)c-2c1 [Compound 49, 2^5-amino-16-bromo-6,9-dioxa-4-aza-2(2,6)-pyrazina-5(3,4)-pyridina-1(1,3)-benzenacyclononaphan-3-one]",–,1 to 1000,1 to 100
"Nc1ncc2nc1C(=O)Nc1cnccc1NCCOCCOCCOCCOc1cccc-2c1 [Compound 7, 2^5-amino-9,12,15,18-tetraoxa-4,6-diaza-2(2,6)-pyrazina-5(3,4)-pyridina-1(1,3)-benzenacyclooctadecaphan-3-one]",–,> 5000,> 1000
"Nc1ncc2nc1C(=O)Nc1cnccc1N1CCC(COc3cccc-2c3)C1 (stereo not shown) [Compound 25, 1^5-amino-3-oxa-7-aza-1(2,6)-pyrazina-6(4,3)-pyridina-5(3,1)-pyrrolidina-2(1,3)-benzenacyclooctaphan-8-one]",–,1 to 1000,1 to 100
"CN1CCNC(=O)c2cc(ccc2OCCCN)-c2cnc(N)c(n2)C(=O)Nc2cnccc21 [Compound 55, 2^5-amino-1^4-(3-aminopropoxy)-6-methyl-4,6,9-triaza-2(2,6)-pyrazina-5(3,4)-pyridina-1(1,3)-benzenacyclodecaphane-3,10-dione]",–,> 5000,100 to 1000
"CN1CCC(=O)N(C)c2cccc(c2)-c2cnc(N)c(n2)C(=O)Nc2cnccc21 [Compound 27, 2^5-amino-6,10-dimethyl-4,6,10-triaza-2(2,6)-pyrazina-5(3,4)-pyridina-1(1,3)-benzenacyclodecaphane-3,9-dione]",–,1 to 1000,1 to 100
"CN1C[C@H](CN)Oc2ccccc2-c2cnc(N)c(n2)C(=O)Nc2cnccc21 [Compound 58, (S)-2^5-amino-8-(aminomethyl)-6-methyl-9-oxa-4,6-diaza-2(2,6)-pyrazina-5(3,4)-pyridina-1(1,2)-benzenacyclononaphan-3-one]",–,1000 to 5000,> 1000

# — US20220169660A1, “CYCLIC AMINO-PYRAZINECARBOXAMIDE COMPOUNDS AND USES THEREOF” (SILVERBACK THERAPEUTICS, INC., priority 2019, published 2022)
